The values below come from patent publication US20030100550A1, “Carboxamide diazepin derivatives, preparation method, use as medicines, pharmaceutical compositions and use thereof” (priority 2002, published 2003).

As a reminder, the IC50 is the midpoint of a concentration-inhibition curve.

Common to all, as to type: biochemical
The target in test [1] is T1, Cathepsin B (Homo sapiens, UniProt P07858).
T1 construct: purchased Calbiochem
The test is described as follows: Study of Cathepsin B inhibition (fluorescence, Z-arg-arg-AMC). Here is the method: (§1) The products to be tested (10 mM) are diluted to […] in DMSO and distributed into Nunc polystyrene 96 well plates at a rate of 2 μl per well. Column 12 of the plate is reserved for the controls and therefore receives […] of DMSO (without products) per well. The plates are stored at −80° C. and thawed on the day of the experiment.
(§2) The products are diluted to 50 μM by adding 38 μl of reaction buffer: sodium acetate 100 mM, EDTA 5 mM, DTT […] pH 5.5. The addition as well as all the operations by pipette are carried out with a CybiWell 96 tip pipette. After mixing the solutions, each product is transferred into 2 wells (duplicates) of a Greiner black 384 well plate at a rate of 10 μl per well. Two 96-well plates can therefore be tested in a 384-well plate.
(§3) A solution of substrate at 50 μM, Z-Val-arg-AMC (Calbiochem), is prepared in the reaction buffer. The substrate, is then distributed into all the wells of the 384-well plate (20 μl per well).
(§4) A solution of Cathepsin K at 12.5 ng/ml is prepared in the reaction buffer and distributed into all the wells of the 384-well plate (20 μl per well) except for the 16 wells serving as 100% inhibition controls (column 23 and 24, lines I to P) which receive 20 μl of enzyme-free buffer.
(§5) The plates are then incubated 2H at ambient temperature, then read on Fluoroskan (Labsystems): excitation 390 nm; emission 460 nm
(§6) The final concentrations of each of the reagents are: products 10 μM, substrate 20 μM, enzyme 5 ng/ml.
(§7) The % inhibition for each of the products is calculated by using points at 0 and 100% inhibition of each plate as references. The products presenting a significant inhibition are then retested on a range of concentrations from 50 to 0.5 μM to determine an IC50.
Study of Cathepsin B Inhibition:
(§8) Protocol identical to that of Cathepsin K except for:
Z-arg-arg-AMC substrate (Calbiochem), solution at 50 μM, final concentration 20 μM
Cathepsin B (Calbiochem), solution at 40 ng/ml, final concentration 16 ng/ml
Incubation for 1 hour at ambient temperature

Test [2] concerns the target T2, Papain (Carica papaya, UniProt P00784).
T2 construct: purchased Sigma
T2 sequence (P00784 134-345): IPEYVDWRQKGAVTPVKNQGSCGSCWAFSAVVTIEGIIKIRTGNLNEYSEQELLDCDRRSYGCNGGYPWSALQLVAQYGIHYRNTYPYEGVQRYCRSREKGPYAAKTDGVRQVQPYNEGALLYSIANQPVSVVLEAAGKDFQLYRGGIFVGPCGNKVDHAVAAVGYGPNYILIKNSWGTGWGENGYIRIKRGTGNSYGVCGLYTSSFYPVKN
The test is described as follows: Study of Papain inhibition (fluorescence). As to conditions: enzyme 20 ng/ml, 30 minutes at ambient temperature. As for the experimental part: as §1, §2, §3, §4, §5, §6, §7
Study of Papain Inhibition:
as §8
Papain (Sigma), solution at 50 ng/ml, final concentration 20 ng/ml
Incubation for 30 minutes at ambient temperature

The target in test [3] is T3, Cathepsin K (Homo sapiens, UniProt P43235).
T3 sequence (P43235 115-329): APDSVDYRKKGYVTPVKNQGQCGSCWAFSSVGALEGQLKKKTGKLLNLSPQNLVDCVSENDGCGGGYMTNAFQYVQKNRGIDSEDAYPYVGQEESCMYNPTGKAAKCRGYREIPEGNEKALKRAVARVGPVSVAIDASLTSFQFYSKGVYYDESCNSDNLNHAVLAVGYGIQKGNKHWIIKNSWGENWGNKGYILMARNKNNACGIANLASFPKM
The test is described as follows: Study of Cathepsin K inhibition (fluorescence, Z-Val-arg-AMC). As to conditions: for IC50: substrate Z-Val-arg-AMC 20 μM, enzyme 5 ng/ml, 2H at ambient temperature, read-out: Cathepsin K IC50. The procedure, abridged:
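Recombinant cathepsin K (5 ng/ml final) with 20 μM Z-Val-Arg-AMC in 100 mM sodium acetate, 5 mM EDTA, DTT, pH 5.5; compounds screened at 10 μM in duplicate, 2 h at ambient temperature, fluorescence ex 390/em 460 nm. % inhibition vs plate 0/100% controls; actives retested 50–0.5 μM for IC50.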

Setting [4] is: printed beside 20 μM, meaning not explained.

Consider `CC(C)(C)Oc1ccc(C[C@H](NC(=O)[C@@H]2CCCN3C(=O)CC[C@H](NC(=O)Nc4ccc(Oc5ccccc5)cc4)C(=O)N23)C(=O)C=[N+]=[N-])cc1` [Example 54, 9-[(9S)-[[(4-phenoxyphenyl)amino]carbonyl]amino]-N-[(2S)-4-diazo-1-[4-[(1,1-dimethyl)ethoxy]phenyl]-3-oxo-2-butyl]-6H-(1S)-pyridazino[1,2-a][1,2]diazepine-1-carboxamide], for which, in test [1] (setting [4]), the “Cathepsin B, percentage in parentheses beside IC50 value (% inhibition)” value stood at 30%. The half-maximal inhibitory concentration (IC50) in test [2] was found to be 15 µM.

For `C=CCOC(=O)CC[C@H](NC(=O)[C@@H]1CCCN2C(=O)CC[C@H](NC(=O)Nc3ccc(Oc4ccccc4)cc3)C(=O)N12)C(=O)COC(=O)c1ccncc1` [Example 131, (2-propenyl)(4S)6-[[(4-pyridinyl)carbonyl]oxy]-4-[[[(1S,9S)-9-[[[(4-phenoxyphenyl)amino]carbonyl]amino]-octahydro-6,10-dioxo-6H-pyridazino[1,2-a][1,2]diazepine-1-yl]carbonyl]amino]-5-oxo-hexanoate], the 50% inhibitory concentration (IC50) in test [3] worked out at 7 µM; in test [2] it was 9 µM.

`C=CCOC(=O)CC[C@H](NC(=O)[C@@H]1CCCN2C(=O)CC[C@H](NC(=O)Nc3ccc(Oc4ccccc4)cc3)C(=O)N12)C(=O)COC(=O)Cc1ccsc1` [Example 134, (2-propenyl)(4S)6-[1-oxo-2-(thien-3-yl)ethoxy]-4-[[[(1S,9S)-9-[[[(4-phenoxyphenyl)amino]carbonyl]amino]-octahydro-6,10-dioxo-6H-pyridazino[1,2-a][1,2]diazepine-1-yl]carbonyl]amino]-5-oxo-hexanoate]: the IC50 in test [3] is 20 µM; in test [2], 7 µM.

On to `[N-]=[N+]=CC(=O)[C@H](Cc1ccccc1)NC(=O)[C@@H]1CCCN2C(=O)CC[C@H](NC(=O)Nc3ccc(Oc4ccccc4)cc3)C(=O)N12` [Example 161, 9-[(9S)[[(4-phenoxyphenyl)amino]carbonyl]amino]-N-((2S)-4-diazo-1-phenyl-3-oxo-2-butyl)-octahydro-6,10-dioxo-6H-(1S)-pyridazino[1,2-a][1,2]diazepine-1-carboxamide], for which the half-maximal inhibitory concentration (IC50) in test [1] (substrate Z-arg-arg-AMC 20 μM, enzyme 16 ng/ml, 1 hour at ambient temperature) is 9 µM; in test [2], 19 µM.

For the compound `[N-]=[N+]=CC(=O)[C@H](Cc1ccccc1)NC(=O)[C@@H]1CCCN2C(=O)CC[C@H](NS(=O)(=O)c3ccc(-c4ccon4)s3)C(=O)N12` [Example 166, 9-[(9S)-[[5-(isoxazol-3-yl)-2-thienyl]sulphonyl]amino]-N-((2S)-4-diazo-1-phenyl-3-oxo-2-butyl)-octahydro-6,10-dioxo-6H-(1S)-pyridazino[1,2-a][1,2]diazepine-1-carboxamide], the concentration for half-maximal inhibition (IC50) in test [3] is 20 µM; in test [2] it was 2 µM.

Consider `O=C(Nc1ccc(Oc2ccccc2)cc1)N[C@H]1CCC(=O)N2CCC[C@@H](C(=O)N[C@@H](Cc3ccccc3)C(=O)CSc3nnnn3-c3ccccc3)N2C1=O` [Example 211, 9-[(9S)-[[(4-phenoxyphenyl)amino]carbonyl]amino]-N-[(2S)-1-phenyl-4-[(1-phenyl-1H-tetrazol-5-yl)thio]-3-oxo-2-butyl]-octahydro-6,10-dioxo-6H-(1S)-pyridazino[1,2-a][1,2]diazepine-1-carboxamide], for which the half-inhibitory concentration (IC50) in test [3] turned out to be 20 µM; in test [2], 6 µM.

For `COC(=O)CCCC(=O)OCC(=O)[C@H](Cc1ccccc1)NC(=O)[C@@H]1CCCN2C(=O)CC[C@H](NC(=O)Nc3ccc(Oc4ccccc4)cc3)C(=O)N12` [Example 217], the “Cathepsin K, percentage in parentheses beside IC50 value (% inhibition)” value in test [3] (setting [4]) was 30%. Also, the concentration for half-maximal inhibition (IC50) turned out to be 20 µM in test [3] and 7 µM in test [2].

Regarding `O=C(NCCc1cccs1)N[C@H]1CCC(=O)N2CCC[C@@H](C(=O)N[C@@H](Cc3ccccc3)C(=O)CSc3nnnn3-c3ccccc3)N2C1=O` [Example 220, 9-[(9S)-[[[2-(thien-2-yl)-ethyl]amino]carbonyl]amino]-N-[(2S)-1-phenyl-4-[(1-phenyl-1H-tetrazol-5-yl)thio]-3-oxo-2-butyl]-octahydro-6,10-dioxo-6H-(1S)-pyridazino [1,2-a][1,2]diazepine-1-carboxamide], the figures for the IC50 in test [3] and in test [2] were 20 µM and 6 µM, respectively.

Regarding `O=C(NCCc1cccs1)N[C@H]1CCC(=O)N2CCC[C@@H](C(=O)N[C@@H](Cc3ccccc3)C(=O)CSc3nc4ccccc4s3)N2C1=O` [Example 221, 9-[(9S)-[[[2-(thien-2-yl)-ethyl]amino]carbonyl]amino]-N-[(2S)-1-phenyl-4-[(2-benzothiazolyl)thio]-3-oxo-2-butyl]-octahydro-6,10-dioxo-6H-(1S)-pyridazino[1,2-a][1,2]diazepine-1-carboxamide], the results for the IC50 in test [3] and in test [2] were 20 µM and 7 µM, respectively.

With `CC(C)[C@H](NC(=O)[C@@H]1CCCN2C(=O)CC[C@H](NC(=O)c3ccco3)C(=O)N12)C(=O)CSc1nc2ccccc2s1` [Example 374, 9-[(9S)-[(2-furanyl)carbonyl]amino]-N-[(3S)-1-[(benzothiazol-2-yl)thio]-4-methyl-2-oxo-3-pentyl]-octahydro-6,10-dioxo-6H-(1S)-pyridazino[1,2-a][1,2]diazepine-1-carboxamide], the IC50 in test [3] was determined as 20 µM; in test [2] it was 7 µM.

For `CC(C)[C@H](NC(=O)[C@@H]1CCCN2C(=O)CC[C@H](NC(=O)NC3CCCCC3)C(=O)N12)C(=O)CSc1nc2ccccc2s1` [Example 382, 9-[(9S)-[(cyclohexylamino)carbonyl]amino]-N-[(3S)-1-[(benzothiazol-2-yl)thio]-4-methyl-2-oxo-3-pentyl]-octahydro-6,10-dioxo-6H-(1S)-pyridazino[1,2-a][1,2]diazepine-1-carboxamide], the 50% inhibitory concentration (IC50) in test [3] stood at 20 µM; in test [2], 9 µM.

With `CC(C)[C@H](NC(=O)[C@@H]1CCCN2C(=O)CC[C@H](NC(=O)Nc3ccc(Oc4ccccc4)cc3)C(=O)N12)C(=O)CSc1nnnn1-c1ccccc1` [Example 389, 9-[(9S)-[[(4-phenoxyphenyl)amino]carbonyl]amino]-N-[(3S)-1-[(1-phenyl-1H-tetrazol-5-yl)thio]-4-methyl-2-oxo-3-pentyl]-octahydro-6,10-dioxo-6H-(1S)-pyridazino [1,2-a][1,2]diazepine-1-carboxamide], the concentration for half-maximal inhibition (IC50) was 20 µM in test [3] and 6 µM in test [2].

For the compound `CC(C)[C@H](NC(=O)[C@@H]1CCCN2C(=O)CC[C@H](NC(=O)NCCc3cccs3)C(=O)N12)C(=O)CSc1nnnn1-c1ccccc1` [Example 397, 9-[(9S)-[[[2-(thien-2-yl)-ethyl]amino]carbonyl]amino]-N-[(3S)-1-[(1-phenyl-1H-tetrazol-5-yl)thio]-4-methyl-2-oxo-3-pentyl]-octahydro-6,10-dioxo-6H-(1S)-pyridazino [1,2-a][1,2]diazepine-1-carboxamide], the concentration for half-maximal inhibition (IC50) is 20 µM in test [3] and 18 µM in test [2].

As to `C[C@H](NC(=O)[C@@H]1CCCN2C(=O)CC[C@H](NC(=O)Nc3ccc(Oc4ccccc4)cc3)C(=O)N12)C(=O)CSc1nc2ccccc2s1` [Example 450, 9-[(9S)-[[(4-phenoxyphenyl)amino]carbonyl]amino]-N-[(2S)-4-[(benzothiazol-2-yl)thio]-3-oxo-2-butyl]-octahydro-6,10-dioxo-6H-(1S)-pyridazino[1,2-a][1,2]diazepine-1-carboxamide], the IC50 came to 20 µM in test [3] and 18 µM in test [2].
